According to patent US8809549B2, “Esters of bendamustine and related compounds, and medical use thereof” (Arevipharma GmbH, priority 2012, dated 2014):

Assays:
[1] = tested on: Jurkat (acute T-cell leukemia, ATCC TIB-152); experiment: Cytotoxicity, MTT assay, Jurkat; format: cell-based, human
Method: (§1) For loosely adherent cells and cells growing in suspension, the MTT-assay^[a] was used. Suspension cells were seeded at a density of 8000 cells/well (100 μl). In case of suspension cells, 100 μl of medium, containing the test compounds bendamustine HCl and bendamustine mofetil ester (or bendamustine methyl ester), were added directly after seeding of the cells. Loosely adherent cells were seeded at a density of 5000 cells/well (100 μl) and treated as described for the crystal violet assay.
(§2) In all cases, one plate was measured at the time, when substances were added (t0-plate). The MTT-(2.5 mg/ml) solution (PBS) was freshly prepared for each measurement. 20 μl of this solution were added per well (100 μl) of each plate at subsequent days. Incubation period with MTT was 3 hours at 37° C. After incubation, the plates were centrifuged, and the medium was removed to a residual volume of 50 μl per well. Then, 100 μl of DMSO were added, and the plates were shaken for 1 hour. Absorbance was measured at a wavelength of 580 nm.
(§3) Eight different human cancer cell lines were treated according to the above general procedure for comparative determination of cytotoxicity of bendamustine-HCl and bendamustine mofetil ester.

[2] = tested on: HEL92.1.7 (erythroleukemia, ATCC TIB-180); experiment: Cytotoxicity, MTT assay, HEL92.1.7; format: cell-based, human
Method: as §1, §2, §3

[3] = tested on: U-937 (histocytic lymphoma, ATCC CRL-1593.2); experiment: Cytotoxicity, MTT assay, U-937; format: cell-based, human
Method: as §1, §2, §3

[4] = tested on: MG-63 (osteosarcoma, ATCC CRL-1427); experiment: Cytotoxicity, crystal violet assay, MG-63; format: cell-based, human
Method: (§4) For the determination of cytotoxicity two different assays were used depending on the characteristics of the treated cells. For adherently growing cells the crystal violet assay^[b] was used. Instead of complete removal of the conditioned culture medium, 100 μl of fresh medium, containing a two-fold higher concentration of the test compounds than the desired final concentration were added 2-3 days after seeding the cells at a density of about 5000 cells/well (100 μl).
as §3

[5] = tested on: SK-ES1 (Ewing sarcoma, ATCC HTB-86); experiment: Cytotoxicity, MTT assay, SK-ES1; format: cell-based, human
Method: as §1, §2, §3

[6] = tested on: LnCap clone FGC (prostate cancer, metastasis of a subclavicular lymph node, ATCC CRL-1740); experiment: Cytotoxicity, MTT assay, LnCap clone FGC; format: cell-based, human
Method: as §1, §2, §3

[7] = tested on: Capan-1 (pancreatic carcinoma, ATCC HTB-80); experiment: Cytotoxicity, crystal violet assay, Capan-1; format: cell-based, human
Method: as §4, §3

[8] = tested on: NCl-H460 (large cell bronchial carcinoma, ATCC HTB-177); experiment: Cytotoxicity, crystal violet assay, NCl-H460; format: cell-based, human
Method: as §4, §3

[9] = tested on: human malignant tumour cell lines; experiment: Comparative cytotoxicity, all cell lines investigated; format: cell-based; conditions: against all human malignant tumour cell lines investigated (Table 1)
Method: as §4, §1
In all cases, one plate was measured at the time, when substances were added (t0-plate). The MTT-(2.5 mg/ml) solution (PBS) was freshly prepared for each measurement. 20 μl of this solution were added per well (100 μl) of each plate at subsequent days. Incubation period with MTT was 3 hours at 37° C. […] Absorbance was measured at a wavelength of 580 nm. […]

[10] = Homo sapiens, long-term exposure (96 h), MTT assay, errors as 95% confidence intervals

Cn1c(CCCC(=O)OCCN2CCOCC2)nc2cc(N(CCCl)CCCl)ccc21 [bendamustine mofetil ester, 2-morpholinoethyl 4-(5-(bis(2-chloroethyl)amino)-1-methyl-1H-benzo[d]imidazol-2-yl)butanoate]
ratio (IC50 bendamustine-HCl / IC50 bendamustine mofetil ester) ([1]; 96 h): 10.1
IC50 [1, 10]: 4.2 ± 0.3 µM
ratio (IC50 bendamustine-HCl / IC50 bendamustine mofetil ester) ([2]; HEL92.1.7, 96 h): 24.7
IC50 ([2]; Homo sapiens, HEL 92.1.7, HEL92.1.7, long-term exposure (96 h), MTT assay, errors as 95% confidence intervals): 3.4 ± 0.4 µM
IC50 ([3]; Homo sapiens, U-937, long-term exposure (96 h), MTT assay, errors as 95% confidence intervals): 4.2 ± 0.9 µM
ratio (IC50 bendamustine-HCl / IC50 bendamustine mofetil ester) ([3]; U-937, 96 h): 21.9
IC50 ([4]; Homo sapiens, MG-63, long-term exposure (96 h), crystal violet assay, errors as 95% confidence intervals): 3.4 ± 0.7 µM
ratio (IC50 bendamustine-HCl / IC50 bendamustine mofetil ester) ([4]; MG-63, 96 h): 16.2
IC50 ([5]; Homo sapiens, SK-ES1, long-term exposure (96 h), MTT assay, errors as 95% confidence intervals): 0.9 ± 0.2 µM
ratio (IC50 bendamustine-HCl / IC50 bendamustine mofetil ester) ([5]; SK-ES1, 96 h): 12.2
ratio (IC50 bendamustine-HCl / IC50 bendamustine mofetil ester) ([6]; 96 h): 34.1
IC50 [6, 10]: 2.1 ± 0.6 µM
ratio (IC50 bendamustine-HCl / IC50 bendamustine mofetil ester) ([7]; Capan-1, 96 h): 19.4
IC50 ([7]; Homo sapiens, Capan-1, long-term exposure (96 h), crystal violet assay, errors as 95% confidence intervals): 1.3 ± 0.3 µM
IC50 ([8]; Homo sapiens, NCl-H460, long-term exposure (96 h), crystal violet assay, errors as 95% confidence intervals): 8.6 ± 0.6 µM
ratio (IC50 bendamustine-HCl / IC50 bendamustine mofetil ester) ([8]; NCl-H460, 96 h): 10.4
cytotoxicity compared to bendamustine-HCl [9]: remarkably enhanced cytotoxicity
